Measured values: patent US7317125B2 (Hoffman-La Roche Inc., priority 2005, dated 2008)

Biological target: T1, DGAT1 (Homo sapiens, UniProt O75907)
T1 construct: expressed in transfected cells; host or cells: CHOK1
T1 sequence (O75907 1-488): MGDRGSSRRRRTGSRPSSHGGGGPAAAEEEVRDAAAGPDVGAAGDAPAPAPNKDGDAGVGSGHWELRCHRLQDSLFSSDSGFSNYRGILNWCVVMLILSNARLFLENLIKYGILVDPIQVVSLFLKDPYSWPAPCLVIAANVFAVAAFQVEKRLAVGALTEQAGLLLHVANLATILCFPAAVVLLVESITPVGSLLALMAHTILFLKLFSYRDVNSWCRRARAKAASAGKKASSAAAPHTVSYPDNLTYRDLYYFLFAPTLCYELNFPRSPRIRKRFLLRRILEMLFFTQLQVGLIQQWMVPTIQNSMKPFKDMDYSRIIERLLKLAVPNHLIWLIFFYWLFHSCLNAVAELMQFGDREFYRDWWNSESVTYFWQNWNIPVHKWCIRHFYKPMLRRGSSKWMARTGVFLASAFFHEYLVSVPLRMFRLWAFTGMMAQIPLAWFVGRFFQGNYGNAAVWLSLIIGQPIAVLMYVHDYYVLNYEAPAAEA
Experiment: DGAT CHOK1 Cell Assay
Type: cell-based
Details: CHOK1 cells transfected with DGAT1, 14C palmitic acid, 1 hour at 37° C., triglyceride by TLC
Source text: Materials for the assay were: petroleum ether (J. T. Baker #9268-22); diethyl ether (Aldrich #30995-8); acetic acid; 1,2-dioleoyl-3-palmitoyl-glycerol (Sigma D-1782); ^[…] Palmitic Acid (56.0 mCi/mmol PerkinElmer Life Sciences # NEC 075H); DMEM/F12 (Gibco #11330-032); fetal bovine serum; L-Glutamine; G418/ml media; DMEM High Glucose (Gibco #11995-065); BSA Fraction V Fatty Acid Free (Roche #100 377); 20×°cm silica gel 60 glass plates (EM Science Plates #5721/7).
CHOK1/DGAT cell culture medium was prepared with DMEM/F12 (Gibco #11330-032), […], and 20 ul G418/ml media. 1,2-dioleoyl-3-palmitoyl-glycerol was prepared by dissolving 10 mg into 1 ml chloroform and stored at −20° C. in 100 μl aliquots. Test compounds were prepared as 10 mM stock solutions in DMSO and store at −20° C. before use. Test dilutions were prepared by five fold serial dilutions over final concentrations.
CHOK1 cells transfected with DGAT1 were diluted in 6 well plates at 2.5×10^5 cells per well and cultured overnight. Cells were then washed twice with PBS. Test compound solutions (10 μl/2 ml media aliquots) in DMEM High Glucose with 0.01% BSA (fatty acid free) were added to cell culture plates at 800 μl per well. ^14C Palmitic acid (0.5 μCi, 5 μl) was added to each well. The plates were incubated for 1 hour at 37° C. After the incubation period, the plates were placed on ice, cells were scraped into media and transferred to microfuge tubes. 400 μl chloroform:methanol (2:1) was added to each tube. Each tube was briefly vortexed by hand, then mechanically vortexed for 10 minutes. Each tube was then centrifuged at 14,000 RPM for 10 minutes at 4° C. and the bottom layer removed and transferred to a new microfuge tube.
Extracted samples were spotted onto TLC plates at 20 μl per lane. The TLC plates were eluted with a solvent mixture of petroleum ether, diethyl ether and acetic acid (80:20:1) and air dried. Trigylceride (TG) spots were visualized by placing in an iodine chamber for several minutes. 1 μl of ^14C palmitic acid (diluted 1:10 in 100% EtOH) was spotted on the TG standard lane (at TG level) as a reference. The TLC plates were wrapped in plastic wrap and placed in a phosphorimager cassette for scanning.
The EC50 values for those compounds tested in this Example were generated using an Excel template, the results of which are shown in Table II: […]

Compound	EC50
CC(C)N(NC(=O)c1ccoc1)C(=O)COc1ccc(F)cc1-c1ccccc1OC(F)(F)F [Example 37, furan-3-carboxylic acid N′-[2-(5-fluoro-2′-trifluoromethoxy-biphenyl-2-yloxy)-acetyl]-N′-isopropyl-hydrazide]	11.1 µM
CC(C)N(NC(=O)C1CCCCC1)C(=O)COc1ccc(F)cc1-c1ccccc1OC(F)(F)F [Example 38, cyclohexanecarboxylic acid N′-[2-(5-fluoro-2′-trifluoromethoxy-biphenyl-2-yloxy)-acetyl]-N′-isopropyl-hydrazide]	2.81 µM
COCCOc1ccc(C(=O)NN(C(=O)COc2ccc(F)cc2-c2ccccc2OC(F)(F)F)C(C)C)cc1 [Example 39, 4-(2-methoxy-ethoxy)-benzoic acid N′-[2-(5-fluoro-2′-trifluoromethoxy-biphenyl-2-yloxy)-acetyl]-N′-isopropyl hydrazide]	3.05 µM
CC(C)N(NC(=O)c1cccs1)C(=O)COc1ccc(F)cc1-c1ccccc1OC(F)(F)F [Example 40, thiophene-2-carboxylic acid N′-[2-(5-fluoro-2′-trifluoromethoxy-biphenyl-2-yloxy)-acetyl]-N′-isopropyl hydrazide]	3.48 µM
CC(C)N(NC(=O)C1CCSCC1)C(=O)COc1ccc(F)cc1-c1ccccc1OC(F)(F)F [Example 41, tetrahydro-thiopyran-4-carboxylic acid N′-[2-(5-fluoro-2′-trifluoromethoxy-biphenyl-2-yloxy)-acetyl]-N′-isopropyl hydrazide]	0.774 µM
CC(C)N(NC(=O)c1ccsc1)C(=O)COc1ccc(F)cc1-c1ccccc1OC(F)(F)F [Example 42, thiophene-3-carboxylic acid N′-[2-(5-fluoro-2′-trifluoromethoxy-biphenyl-2-yloxy)-acetyl]-N′-isopropyl hydrazide]	3.29 µM
CC(C)N(NC(=O)c1ccccc1)C(=O)CSc1ccccc1-c1cccc(F)c1 [Example 48, benzoic acid N′-[2-(3′-fluoro-biphenyl-2-ylsulfanyl)-acetyl]-N′-isopropyl-hydrazide]	3.4 µM
Cc1cccc(-c2ccccc2SCC(=O)N(NC(=O)c2ccccc2)C(C)C)c1C [Example 49, benzoic acid N′-[2-(2′,3′-dimethyl-biphenyl-2-ylsulfanyl)-acetyl]-N′-isopropyl-hydrazide]	5.67 µM
COc1cccc(-c2ccccc2SCC(=O)N(NC(=O)c2ccccc2)C(C)C)c1 [Example 50, benzoic acid N′-[2-(3′-methoxy-biphenyl-2-ylsulfanyl)-acetyl]-N′-isopropyl-hydrazide]	1.29 µM
CC(C)N(NC(=O)c1ccccc1)C(=O)CSc1ccccc1-c1ccc(F)cc1 [Example 51, benzoic acid N′-[2-(4′-fluoro-biphenyl-2-ylsulfanyl)-acetyl]-N′-isopropyl-hydrazide]	4.9 µM
CC(C)N(NC(=O)c1ccccc1)C(=O)CSc1ccccc1-c1cccc(C(F)(F)F)c1 [Example 52, benzoic acid N′-[2-(3′-trifluoromethyl-biphenyl-2-ylsulfanyl)-acetyl]-N′-isopropyl-hydrazide]	1.6 µM
COc1ccccc1-c1ccccc1SCC(=O)N(NC(=O)c1ccccc1)C(C)C [Example 53, benzoic acid N′-[2-(2′-methoxy-biphenyl-2-ylsulfanyl)-acetyl]-N′-isopropyl-hydrazide]	6.7 µM
CC(C)N(NC(=O)c1ccccc1)C(=O)CSc1ccccc1-c1ccccc1F [Example 54, benzoic acid N′-[2-(2′-fluoro-biphenyl-2-ylsulfanyl)-acetyl]-N′-isopropyl-hydrazide]	1.43 µM
COc1ccc(-c2ccccc2SCC(=O)N(NC(=O)c2ccccc2)C(C)C)cc1 [Example 55, benzoic acid N′-[2-(4′-methoxy-biphenyl-2-ylsulfanyl)-acetyl]-N′-isopropyl-hydrazide]	2.3 µM
CC(C)N(NC(=O)c1ccccc1)C(=O)CSc1ccccc1-c1ccccc1 [Example 56, benzoic acid N′-[2-(biphenyl-2-ylsulfanyl)-acetyl]-N′-isopropyl-hydrazide]	37.4 µM
CC(C)CNc1ccc(C(=O)NN(C(=O)COc2ccc(F)cc2-c2ccccc2OC(F)(F)F)C(C)C)cc1 [Example 57, 4-(isobutylamino)-benzoic acid N′-[2-(5-fluoro-2′-trifluoromethoxy-biphenyl-2-yloxy)-acetyl]-N′-isopropyl hydrazide]	0.348 µM
